Marks after values point to notes of the source that are not given here.
What was measured:
Y1 receptors = target: T1, Y1 receptors (Rattus norvegicus, UniProt P21555); assay: Pressor response (increase in blood pressure) in anaesthetised rats (postjunctional activity); format: in vivo
T1 construct: from tissue; host or cells: anaesthetised Wistar rat, vasculature (in vivo)
T1 sequence (P21555 1-382): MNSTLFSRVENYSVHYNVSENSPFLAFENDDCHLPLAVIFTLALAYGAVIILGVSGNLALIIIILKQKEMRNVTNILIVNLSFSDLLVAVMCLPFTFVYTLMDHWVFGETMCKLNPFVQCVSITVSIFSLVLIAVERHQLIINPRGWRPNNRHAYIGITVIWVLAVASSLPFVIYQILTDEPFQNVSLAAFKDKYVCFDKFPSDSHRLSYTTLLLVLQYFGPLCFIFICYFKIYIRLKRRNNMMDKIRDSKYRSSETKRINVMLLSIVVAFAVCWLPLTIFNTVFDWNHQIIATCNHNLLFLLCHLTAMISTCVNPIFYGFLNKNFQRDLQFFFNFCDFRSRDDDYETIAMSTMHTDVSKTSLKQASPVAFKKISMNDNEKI
Description: Experiments were carried out on adult rats (Wistar) of both sexes (250-350 g), anaesthetised with sodium pentobarbitone (Nembutal, Boehringer-Ingleheim; 60 mg/kg, i.p.). The trachea was cannulated and the animal artificially ventilated. The femoral vein was cannulated for administration of peptides and further doses of anaesthetic. The left femoral artery was cannulated to record arterial pressure. Both vagus nerves were cut. […] The electrocardiogram was measured using needle electrodes and monitored on one channel of an osciloscope. Pulse interval (the period between successive beats of the heart) was recorded beat-by-beat by triggering from ECG. Pulse interval and arterial pressure were recorded on the pen recorder.
Dose-response curves were constructed from group data for all rats. Because of the long time-course of action of the peptides tested, not all peptides were given to each rat.
As an indication of prejunctional activity two parameters were measured; the maximum percent inhibition of the increase in pulse interval evoked by stimulation of the vagus nerve following injection of peptide and the time to half recovery of this effect (T50). For pressor action, an indicator of postjunctional activity, two parameters were also measured; the peak pressor response following injection of peptide and the duration of the increase in blood pressure. […] Results were analysed using a one-way ANOVA.

[1] = target: T2, human neuropeptide Y Y1 receptor (Homo sapiens, UniProt P25929); conditions: fibroblast cells; cited from earlier work
T2 sequence (P25929 1-384): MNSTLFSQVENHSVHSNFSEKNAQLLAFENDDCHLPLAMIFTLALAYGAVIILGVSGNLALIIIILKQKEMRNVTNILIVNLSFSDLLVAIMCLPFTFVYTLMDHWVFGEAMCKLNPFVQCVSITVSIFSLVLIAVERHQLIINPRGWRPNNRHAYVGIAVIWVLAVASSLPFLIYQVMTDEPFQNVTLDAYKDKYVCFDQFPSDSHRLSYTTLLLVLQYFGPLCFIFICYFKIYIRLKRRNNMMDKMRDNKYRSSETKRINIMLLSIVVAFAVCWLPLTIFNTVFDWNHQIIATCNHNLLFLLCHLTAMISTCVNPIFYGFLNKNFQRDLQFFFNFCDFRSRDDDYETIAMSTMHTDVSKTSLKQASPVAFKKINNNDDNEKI

[2] = target: T3, neuropeptide Y Y2 receptor subtype (Homo sapiens, UniProt P49146); conditions: SMS-KAN cells; cited from earlier work
T3 construct: host or cells: SMS-KAN human neuroblastoma cells
T3 sequence (P49146 1-381): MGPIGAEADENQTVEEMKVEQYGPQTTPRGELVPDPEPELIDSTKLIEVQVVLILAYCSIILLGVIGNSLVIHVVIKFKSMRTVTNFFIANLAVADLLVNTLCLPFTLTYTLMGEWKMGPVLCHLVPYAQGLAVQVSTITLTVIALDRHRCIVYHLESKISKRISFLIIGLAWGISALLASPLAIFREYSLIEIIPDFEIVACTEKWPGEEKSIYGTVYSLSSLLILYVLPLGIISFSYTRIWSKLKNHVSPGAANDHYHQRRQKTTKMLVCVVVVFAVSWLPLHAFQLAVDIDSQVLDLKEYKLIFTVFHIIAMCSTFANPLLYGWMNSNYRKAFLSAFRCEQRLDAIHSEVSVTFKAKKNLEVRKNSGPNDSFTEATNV

[3] = target: T4, neuropeptide Y Y1 receptor type (Homo sapiens, UniProt P25929); conditions: SK-N-MC cells; cited from earlier work
T4 construct: host or cells: SK-N-MC human cells
T4 sequence (P25929 1-384): T2 sequence (P25929 1-384)

human Y1 receptor = target: T5, human Y1 receptor (Homo sapiens, UniProt P25929); assay: [125I]NPY receptor binding assay on SK-N-MC cells
T5 construct: host or cells: SK-N-MC cells (thawed, needle-disrupted cells)
T5 sequence (P25929 1-384): T2 sequence (P25929 1-384)
Description: (§1) SK-N-MC cells expressing the human Y1 receptor and SMS-MSN cells expressing the human Y2 receptor were obtained from the ATCC. They were cultured in 1:1 DMEM:Ham's F12 medium (ICN) containing 10% fetal calf serum, 0.1% non-essential amino acids, 0.2 mM glutamine, and 0.056% sodium bicarbonate. Confluent cells were harvested in scraping and pellets were stored at −80° C. On the day of use cells were thawed, washed once in binding buffer salts, passed several times through a 22 ga. needle, and the protein content was assayed using bicinchoninic acid (BCA kit, Pierce).
(§2) Just before use, plates were filtered and washed twice with 50 mM Tris-HCI pH 7.4/0.1% BSA. […] Binding was terminated by filtration. Filters were washed twice by rapid filtration with […] volumes of 50 mM Tris-HCI pH 7.4/0.1% BSA at 2° C., and counted on an LKB gamma counter. Specific binding was analysed by non-linear regression using a single-site fitting function (Graphpad Prism). Non-specific binding was defined by binding in the presence of 1 μM competitor.

Y2-like receptors = target: T6, Y2-like receptors (Rattus norvegicus, UniProt Q9ERC0); assay: Inhibition of the vagally evoked increase in pulse interval in anaesthetised rats (prejunctional activity); format: in vivo; conditions: compared with Ac[Leu28,Leu31]NPY(24-36)
T6 construct: from tissue; host or cells: anaesthetised Wistar rat, cardiac vagal nerve endings (in vivo)
T6 sequence (Q9ERC0 1-381): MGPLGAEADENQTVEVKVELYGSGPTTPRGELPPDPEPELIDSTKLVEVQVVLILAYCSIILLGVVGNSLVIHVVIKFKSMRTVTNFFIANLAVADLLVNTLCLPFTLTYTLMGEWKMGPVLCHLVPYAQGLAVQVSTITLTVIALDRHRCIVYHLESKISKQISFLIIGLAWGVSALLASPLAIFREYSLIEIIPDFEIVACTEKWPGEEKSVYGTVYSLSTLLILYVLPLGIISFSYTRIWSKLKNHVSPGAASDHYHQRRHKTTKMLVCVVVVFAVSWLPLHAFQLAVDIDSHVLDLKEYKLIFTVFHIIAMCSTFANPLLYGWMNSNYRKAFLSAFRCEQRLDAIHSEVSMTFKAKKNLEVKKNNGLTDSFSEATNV
Description: Experiments were carried out on adult rats (Wistar) of both sexes (250-350 g), anaesthetised with sodium pentobarbitone (Nembutal, Boehringer-Ingleheim; 60 mg/kg, i.p.). The trachea was cannulated and the animal artificially ventilated. The femoral vein was cannulated for administration of peptides and further doses of anaesthetic. The left femoral artery was cannulated to record arterial pressure. Both vagus nerves were cut. […] The frequency was chosen to increase pulse interval by approximately 100 ms, a submaximal effect on this variable. The electrocardiogram was measured using needle electrodes and monitored on one channel of an osciloscope. Pulse interval (the period between successive beats of the heart) was recorded beat-by-beat by triggering from ECG. Pulse interval and arterial pressure were recorded on the pen recorder.
Dose-response curves were constructed from group data for all rats. Because of the long time-course of action of the peptides tested, not all peptides were given to each rat. Usually however, each rat received neuropeptide Y and two other peptides.
As an indication of prejunctional activity two parameters were measured; the maximum percent inhibition of the increase in pulse interval evoked by stimulation of the vagus nerve following injection of peptide and the time to half recovery of this effect (T50). For pressor action, an indicator of postjunctional activity, two parameters were also measured; the peak pressor response following injection of peptide and the duration of the increase in blood pressure. These indices give a reliable measure of the actions of a peptide at pre- and postjunctional sites, and have been used previously in this laboratory for this purpose; Potter et al., 1989; Potter et al., 1991). Results were analysed using a one-way ANOVA.

[4] = tested on: Y2-like receptors mediating inhibition of transmitter release from renal nerves; assay: Increase of renal vascular resistance elicited by renal sympathetic nerve stimulation; format: in vivo, dog; conditions: 40 nmol dose; FIG. 1
Description: Experiments were carried out in six, adult, mongrel dogs of both sexes weighing between 18 and 26 kg. The dogs were anaesthetised with a bolus injection of sodium pentobarbitone (36 mg/kg intravenous; Nembutal, Boehringer Ingelheim) and then maintained on an infusion (2-3 mg/kg/hr). The animal was artificially ventilated, maintained at constant temperature and blood pressure and heart rate were monitored continuously.
The left kidney was exposed retroperitoneally and renal arterial blood flow was monitored continuously (Pernow & Lundberg, 1989a), using a transonic flow probe (Transonic System Inc., N.Y.). Postganglionic nerves to the kidney were isolated, cut and placed over bipolar, platinum electrodes for stimulation (1-10 Hz, 5-10 V, 1-5 msec).
The renal nerve was stimulated over a range of frequencies (1-10 Hz) for 30 secs and a frequency-response curve constructed. The responses were measured at the peak change in flow. […] Responses were reported as change in vascular resistance.

human Y2 receptor = target: T7, human Y2 receptor (Homo sapiens, UniProt P49146); assay: [125I]NPY receptor binding assay on SMS-MSN cells
T7 construct: host or cells: SMS-MSN cells (thawed, needle-disrupted cells)
T7 sequence (P49146 1-381): T3 sequence (P49146 1-381)
Description: as §1, §2

[5] = anaesthetised rats, †: No response to 10 nmole dose

Substance	Increase in BP (rel to NPY) (Y1 receptors; [5])	further results
Ac-LRHYLNLLARQRY-NH2 [Ac[L28,L31,A32]NPY24-36]	0†	
Ac-LAHYRNLLTRQRY-NH2 [Ac[A25,R28,L31]NPY24-36]	0†	
Ac-LRHYLNLLTRQRY-NH2 [Ac[L28,L31]NPY24-36] [listing 1 of 2 here]		Stimulation of the Y1 receptor to induce an increase in cytosolic calcium [1]: did not stimulate; Affinity for the neuropeptide Y Y2 receptor subtype, in words [2]: significant affinity; Affinity for the neuropeptide Y Y1 receptor type, in words [3]: no affinity; Increase in BP (rel to NPY) (Y1 receptors; rat, in vivo): 0†
AcNPY24-36 [reference compound]	0†	
Ac-LRHYLNLLTRQRY-NH2 [Ac[L28,L31]NPY24-36] [listing 2 of 2 here]		IC50 (human Y1 receptor): > 100 nM
Ac-ARAALNAATRQRY-NH2 [Ac[A24,26,27,30,31,L28]NPY24-36]	0†	Inhibition of the effect of vagal stimulation on heart rate, in words (Y2-like receptors): enhanced in vivo activity at Y2 receptors; IC50 (human Y1 receptor): > 1000 nM
Ac-LRAYLNLLTRQRY-NH2 [Ac[A26,L28,L31]NPY24-36]	0†	
Ac-LAHYLNLLTRQRY-NH2 [Ac[A25,L28,L31]NPY24-36]	0†	
Ac-ARHALNLLTRQRY-NH2 [Ac[A24,A27,L28,L31]NPY24-36]	0†	Inhibition of the increase of renal vascular resistance elicited by renal nerve stimulation [4]: almost completely inhibited the effect of nerve stimulation; Inhibition of the effect of vagal stimulation on heart rate, in words (Y2-like receptors): enhanced in vivo activity at Y2 receptors; Direct effect on the circulation (Y1 receptors; 40 nmol dose): no direct effect on the circulation; Affinity for NPY Y2 receptors, in words (human Y2 receptor): high affinity for NPY Y2 receptors
Ac-LRHYLALLTRQRY-NH2 [Ac[L28,A29,L31]NPY24-36]	0†	
Ac[L28,I30]NPY24-36 (Ac-LRHYLNIITRQRY-NH2; ends and bridges not checked; UniProt P01303 52-64, looked up, variant I28L L30I)	0†	
Ac-LRHYLNLATRQRY-NH2 [Ac[L28,A31]NPY24-36]	0†	
Ac-LRHYLNALTRQRY-NH2 [Ac[L28,A30,L31]NPY24-36]	0†	
Ac-LRHALNLLTRQRY-NH2 [Ac[A27,L28,L31]NPY24-36]	0†	
Ac[A26,27,L28,31]NPY24-36 (Ac-LRAALNLLTRQRY-NH2; ends and bridges not checked)		Inhibition of the effect of vagal stimulation on heart rate, in words (Y2-like receptors): enhanced in vivo activity at Y2 receptors
Ac-LRHYANLLTRQRY-NH2 [Ac[A28,L31]NPY24-36]	0†	
Ac-ARHYLNLLTRQRY-NH2 [Ac[A24,L28,L31]NPY24-36]	0†	IC50 (human Y2 receptor): 19.3 nM

Reference: patent US6696409B1 (priority 1996, dated 2004)
